Data taken from ChEMBL document CHEMBL1126419 (Bioorg Med Chem Lett, 1992).

The compounds below were run against cAMP-dependent protein kinase (PKA) (Homo sapiens, UniProt P22694+P17612+P22612) (assay: Inhibition of protein kinase A).
Type: protein assay

| SMILES | IC50 [µM] |
| --- | --- |
| O=C1NCc2c1c1c3ccccc3[nH]c1c1[nH]c3ccccc3c21 [STAUROSPORINONE] | 25.7 |
| O=C1NC(=O)c2c1c1c3ccccc3[nH]c1c1[nH]c3ccccc3c21 [STAUROSPORINE AGLYCON] | 60 |
| O=C1NC(O)c2c1c1c3ccccc3[nH]c1c1[nH]c3ccccc3c21 (centres undefined) | 34 |
| O=C1NC(=O)c2c1c1c3cccc(Cl)c3[nH]c1c1[nH]c3c(Cl)cccc3c21 | > 100 |
